Results published in patent EP0896965A1, “Inhibitors of G-protein-beta, gamma subumit function” (BOEHRINGER MANNHEIM GMBH, priority 1997, dated 1999).
No end group written: not given here.

Key:
phospholipase C-β2 = test: Inhibition of Gβγ-stimulated phospholipase C-β2 activity; format: biochemical; details: peptide at 100 µM; Gβγ 600 nM
Procedure: (§1) • Figure 1 Inhibition of GTPase activity of Go by His6-tagged phosducin and its N-terminally truncated variants. […] The size of the short form of PhLP is indicated by the line on the top. Analysis with nonlinear curve fitting gave the following IC50-values: phosducin 15±1 nM, phosducin(64-246) 33±3 nM, phosducin( 138-246) 25±2 nM, phosducin(172-246) 95±13 nM, phosducin(204-246) 240±20 nM. Data are mean ± SEM of 3 independent experiments • Figure 2 Direct binding of His6-tagged phosducin and phosducin(204-246) to Gβγ. […] After washing, the Gβγ retained in the pellet was detected by SDS-polyacrylamide gel electrophoresis and Western blotting with antibodies directed against Gβ. • Figure 3 Inhibition of G0GTPase activity by synthetic peptides (top) derived from the C-terminus of phosducin. […] The activity of βARK was determined using rhodopsin in rod outer segments the substrate as in Schroeder and Lohse 1996. […] Phospholipase C-β2 activity was determined with a truncated version of PLC-β2 (PLC-mut) as described by Dietrich et al. (1994). […] Activity is expressed as pmoles of inositol 1.4.5-triphosphate formed per minute. • Figure 5 Amide region of a 500 MHz WATERGATED NOESY spectrum of the peptide phosducin(204-231) in 10 mM Phosphate buffer containing 100 mM NaCI and 10% D2O at pH = 6.5 and 277 K. The mixing time used was 250 ms. […]

[1] = tested on: β-adrenergic receptor kinase; test: Inhibition of rhodopsin phosphorylation by β-adrenergic receptor kinase in the presence of Gβγ; format: biochemical; details: peptide at 100 µM; 1 µM rhodopsin, 2.5 nM βARK-1, 20 nM Gβγ
Procedure: as §1

Q: Which results are given for GDVESFLNEYGLLPEKEM [phosducin(215-232)]?
A: antagonism of the stimulatory effects of Gβγ on the activity of phospholipase Cβ2 (phospholipase C-β2): antagonized; antagonism of the stimulatory effects of Gβγ on the activity of the β-adrenergic receptor kinase [1]: antagonized
